Data set [1] has as its system Mus musculus. Description: AUC (0 to 5 hrs) in BALB/c mouse at 20 mg/kg. It is filed as ADME, organism-based, Plasma. The arrangement: time < 4 hr, dose 20 mg/kg. Particulars: in vivo, 4 h.
Data set [2] has as its system Mus musculus. Description: Dose normalised AUC (0 to 5 hrs) in BALB/c mouse at 20 mg/kg, po. It is filed as ADME, organism-based. The arrangement: time < 4 hr, dose 20 mg/kg, route oral. To be noted: in vivo, 4 h.
Data set [3] in a line: Cytotoxicity against human HeLa cells. It is filed as cell-based. Particulars: read-out: TC50 (the source's name).
The nature of data set [4]: Selectivity index, TC50 for CHO cells to EC50 for chloroquine-sensitive Plasmodium falciparum 3D7. Format: toxicity, cell-based. To be noted: hamster, read-out: Selectivity Index.
The nature of data set [5]: Cytotoxicity against human HuH7 cells. It is filed as cell-based, Huh-7. Particulars: read-out: TC50 (the source's name).
Data set [6] can be described thus: Selectivity index, TC50 for human Hep2 cells to EC50 for chloroquine-sensitive Plasmodium falciparum 3D7. Particulars: read-out: Selectivity Index. Format: toxicity, cell-based, HEp-2.
Data set [7] is described as follows: Cytotoxicity against human Hep2 cells. Format: cell-based, HEp-2. To be noted: read-out: TC50 (the source's name).
Data set [8] in a line: Cytotoxicity against CHO cells. It is filed as cell-based, Cricetulus griseus. Particulars: chinese hamster, read-out: TC50 (the source's name).
Data set [9] is described as follows: Cytotoxicity against human 293T cells. It is filed as cell-based, HEK-293T. Particulars: read-out: TC50 (the source's name).
The nature of data set [10]: Cytotoxicity against mouse BAF3 cells. Format: cell-based. Particulars: read-out: TC50 (the source's name).
The nature of data set [11]: Selectivity index, TC50 for mice (Mus musculus) BAF3 cells to EC50 for chloroquine-sensitive Plasmodium falciparum 3D7. It is filed as toxicity, cell-based. To be noted: read-out: Selectivity Index.
Data set [12] in a line: Selectivity index, TC50 for human HuH7 cells to EC50 for chloroquine-sensitive Plasmodium falciparum 3D7. Format: toxicity, cell-based, Huh-7. Particulars: read-out: Selectivity Index.
The nature of data set [13]: Selectivity index, TC50 for human HeLa cells to EC50 for chloroquine-sensitive Plasmodium falciparum 3D7. It is filed as toxicity, cell-based. Particulars: read-out: Selectivity Index.

In ChEMBL document CHEMBL1153703, “Cell-based optimization of novel benzamides as potential antimalarial leads” (Bioorg Med Chem Lett, 2009) one finds AUC, CC50 and selectivity ratio data, which are given here for six molecules.

A word on the AUC: it is concentration integrated over time. Higher therefore signals more exposure.

For the molecule `O=C(Nc1cccc(Cl)c1)c1cc(N2CCC(N3CCCCC3)CC2)cc(C(F)(F)F)c1`, the AUC came to 4.37 µM·h in data set [1] and 6.1 µg·min/mL in data set [2].

Consider `O=C(Nc1cc(Cl)cc(Cl)c1)c1cc(N2CCC(N3CCCC3)CC2)cc(C(F)(F)F)c1`, for which the results for the AUC in [1] and in [2] were 4.81 µM·h and 7.01 µg·min/mL, respectively.

For `O=C(Nc1cccc(Cl)c1)c1cc(N2CCC(N3CCCC3)CC2)cc(C(F)(F)F)c1`, the AUC came to 3.92 µM·h in data set [1] and 5.31 µg·min/mL in data set [2].

On to `O=C(Nc1cccc(C(F)(F)F)c1)c1cc(N2CCc3ccccc3C2)cc(C(F)(F)F)c1`, for which the AUC was 1.67 µM·h in data set [1] and 2.33 µg·min/mL in data set [2].

Turning to `CC1CCN(C2CCN(c3cc(C(=O)Nc4cccc(Cl)c4)cc(C(F)(F)F)c3)CC2)CC1`, the AUC in data set [1] turned out to be 7.93 µM·h; in data set [2], 11.42 µg·min/mL. Also, the CC50 in [3], in [5], in [7], in [8], in data set [9] and in data set [10] was over 8 µM in each case. Besides, the selectivity ratio in data set [4], in [6], in data set [11], in data set [12] and in [13] was over 20 in each case.

Consider `O=C(Nc1cc(N2CCC(N3CCCC3)CC2)cc(C(F)(F)F)c1)c1cccc(C(F)(F)F)c1`, for which the AUC in [1] is 4.77 µM·h; in data set [2], 6.94 µg·min/mL.
